Source: US8986731B2, “Pegylated liposomal formulations of hydrophobic photosensitizers for photodynamic therapy” (Biolitec Pharma Marketing Ltd, priority 2003, dated 2015)

Experiment: Pharmacokinetic properties in HT29 tumour-bearing mice (HPLC of plasma and tissues; tolerability of injection)
Format: in vivo, athymic NMRI nu/nu mice
Details: lateral tail vein injection, 50 μL
Method: HT 29 human colorectal carcinoma cells are used. Six to eight weeks old adult female athymic NMRI nu/nu mice (Taconic M&B, Denmark) weighting 22-24 g were inoculated subcutaneously in the left hind thigh with 0.1 ml of 8×10^7 HT29 human colorectal carcinoma cells/ml in 5% glucose. Two to three weeks later, as the tumor reached a surface diameter of 7-8 mm, and a thickness of 2-3 mm in height, 50 μL of Temoporfin (0.2 mg/kg) diluted in ethanol or 50 μL pegylated liposomal formulation of mTHPC (0.04 mg/ml) were injected into lateral tail vein. Following the drug injection animals were held under normal animal house lighting conditions (average illumination of 200 Lux, maximum 600 Lux of fluorescent tube light, with no exposure to sunlight or daylight). No photo-reaction was observed during this period. […] The fluorescence wave length was set at 410 nm for excitation and 653 nm for emission. The tissue concentration of mTHPC was calculated from a calibration curve constructed by plotting the peak height values of mTHPC standard solutions versus their concentrations.

Structure (SMILES): Oc1cccc(-c2c3nc(c(-c4cccc(O)c4)c4ccc([nH]4)c(-c4cccc(O)c4)c4nc(c(-c5cccc(O)c5)c5ccc2[nH]5)CC4)C=C3)c1 [Temoporfin]
- Adverse effects during or immediately after injection: No adverse effects
